Entries after “also recorded” stand apart in the source; their conditions may differ.
Legend:
PNA = target: T1, PNA (Arachis hypogaea, UniProt P02872); test: Hapten inhibition of PNA/asialoglycophorin precipitation; format: binding; conditions: for Relative Inhibition potency PNA: Galactose = 1, 40 μg PNA, 6 μg asialoglycophorin
T1 construct: purchased E.Y. Laboratories, San Mateo, Calif; (donated by Dr. A. Chu)
T1 sequence (P02872 24-273): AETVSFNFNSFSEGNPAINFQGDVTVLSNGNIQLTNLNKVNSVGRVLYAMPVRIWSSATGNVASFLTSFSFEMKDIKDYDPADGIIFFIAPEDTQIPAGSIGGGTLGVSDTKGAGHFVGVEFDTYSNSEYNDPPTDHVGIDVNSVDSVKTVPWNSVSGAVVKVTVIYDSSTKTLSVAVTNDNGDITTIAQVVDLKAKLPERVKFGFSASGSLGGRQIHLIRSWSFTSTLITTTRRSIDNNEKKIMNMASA
Protocol: Precipitation reactions with PNA were carried out similarly, except that 40 μg of PNA was used. Hapten inhibition studies with PNA used 40 μg of PNA, 6 μg of asialoglycophorin, and the indicated sugar concentrations.

amaranthin = amaranthin (Amaranthus caudatus, UniProt Q71QF2); test: Hapten inhibition of amaranthin/asialo-ovine submaxillary mucin precipitation; format: binding; conditions: for Relative Inhibition potency ACA: N-Acetylgalactosamine = 1
amaranthin, sequence (Q71QF2 entry or part of it): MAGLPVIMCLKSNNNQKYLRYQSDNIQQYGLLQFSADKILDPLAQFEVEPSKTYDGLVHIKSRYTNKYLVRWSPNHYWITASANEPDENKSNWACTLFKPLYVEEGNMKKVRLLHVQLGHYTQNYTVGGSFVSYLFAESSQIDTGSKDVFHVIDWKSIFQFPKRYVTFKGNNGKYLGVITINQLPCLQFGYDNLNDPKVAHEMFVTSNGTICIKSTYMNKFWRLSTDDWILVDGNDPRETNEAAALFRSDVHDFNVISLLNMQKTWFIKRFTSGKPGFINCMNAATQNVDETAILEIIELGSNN
Protocol: Precipitation assays were conducted in 1.5 ml centrifuge tubes by the method of So and Goldstein. Indicated amounts of glycoprotein were added to 80 μg of amaranthin, and the total volume was adjusted to 250 μl with phosphate buffered saline. The tubes were incubated at 37° C. and then kept at 4° C. for 2 days. The precipitates were centrifuged, washed with cold Phosphate buffered saline, dissolved in 0.05 N NaOH and analyzed for protein by the method of Lowery et al. using bovine serum albumin as the standard. Hapten inhibition assays were carried out using 80 μg of amaranthin, 5 μg of asialo-ovine submaxillary mucins, and the indicated sugar concentrations. Inhibition was determined relative to the amount of precipitate formed in the control with no sugar added. All precipitation assays were conducted in duplicate to bring the tolerance within ±5% and the amount of precipitate formed average.

SMILES | inhibition of amaranthin/AOSM precipitation, in words (amaranthin) | Relative Inhibition potency ACA (amaranthin) | IC50 (amaranthin) [µM] | further results
CO[C@H]1O[C@H](CO)[C@H](O)[C@H](O[C@@H]2O[C@H](CO)[C@H](O)[C@H](O)[C@H]2O)[C@H]1O [Galβ1,3Galα-O-CH3] | very poor inhibitors | < 0.8 |  | inhibition of PNA, in words (PNA): rather good inhibitors; Relative Inhibition potency PNA (PNA): 4.2
CO[C@@H]1O[C@H](CO)[C@H](O)[C@H](O)[C@H]1O [Methyl β-galactoside] |  | < 0.003 |  | Relative Inhibition potency PNA (PNA): 0.8
C=CCO[C@H]1O[C@H](CO)[C@H](O)[C@H](O[C@@H]2O[C@H](CO)[C@H](O)[C@H](O)[C@H]2O)[C@H]1NC(C)=O [Galβ1,3GalNAcα-O-CH2 CH = CH2] |  | 376 | 2.1 | Relative Inhibition potency PNA (PNA): 38; fold more potent than the anomeric β-O-allyl glycoside (amaranthin; inhibitor of amaranthin): 16
CO[C@H]1O[C@H](CO)[C@H](O)[C@H](O)[C@H]1NC(C)=O [Methyl N-acetyl-α-galactosaminide] | best monosaccharide inhibitor | 3.2 | 250 | 
CO[C@H]1O[C@H](CO)[C@H](O)[C@H](O[C@@H]2O[C@H](CO)[C@@H](O)[C@H](O)[C@H]2O)[C@H]1NC(C)=O [Gacβ1,3GalNAcα-O-CH3] |  | 22 | 36 | times less potent than Galβ1,3GalNAcα-O--CH3 (amaranthin; inhibitor of amaranthin): 10
OC[C@H]1OC(O)[C@H](O)[C@@H](O)[C@H]1O (stereo partly drawn) [Galactose] | very poor inhibitors; also recorded: not by galactose | < 0.002 |  | 
C=CCO[C@@H]1O[C@H](CO)[C@H](O)[C@H](O[C@@H]2O[C@H](CO)[C@H](O)[C@H](O)[C@H]2O)[C@H]1NC(C)=O [Galβ1,3GalNAcβ-O-CH2 -CH = CH2] |  | 23 | 34 | 
COC(=O)CCCCCCCCO[C@H]1O[C@H](CO)[C@H](O)[C@H](O[C@@H]2O[C@H](CO)[C@H](O)[C@H](O[C@]3(C(=O)O)C[C@H](O)[C@@H](NC(C)=O)[C@H]([C@H](O)[C@H](O)CO)O3)[C@H]2O)[C@H]1NC(C)=O [NeuAcα2,3Galβ1,3GalNAcα-O-(CH2)8 --CO2 CH3] | does not decrease inhibitory potency | 439 | 1.8 | 
CC(=O)N[C@H]1[C@H](O[C@H]2[C@@H](O)[C@@H](CF)O[C@H](OCc3ccccc3)[C@@H]2NC(C)=O)O[C@H](CO)[C@@H](O)[C@@H]1O [GlcNAcβ1,3[6-F]GalNAcα-O-benzyl] |  | < 0.08 |  | 
CO[C@H]1O[C@H](CO)[C@H](O)[C@H](O)[C@H]1NC(=O)c1ccc([N+](=O)[O-])cc1 [Methyl (2-N-p-nitrobenzamindo)-α-galactosaminide] |  | 5.6 | 140 | 
CC(=O)N[C@H]1[C@@H](Oc2ccccc2[N+](=O)[O-])O[C@H](CO)[C@H](O)[C@@H]1O[C@@H]1O[C@H](CO)[C@H](O)[C@H](O)[C@H]1O [Galβ1,3GalNAcα-O-o-nitrophenyl] |  | 376 | 2.1 | 
OC[C@H]1OC(O)[C@H](O)[C@@H](O)[C@@H]1O (stereo partly drawn) [Glucose] |  | < 0.002 |  | 
CO[C@H]1O[C@H](CO)[C@H](O)[C@H](O)[C@H]1OC(=O)c1ccc([N+](=O)[O-])cc1 [Methyl (2-O-p-nitrobenzoate)-α-galactoside] |  | < 0.1 |  | 

Source: patent US6084072A, “Purified lectin and methods of use” (The Regents of the University of Michigan, priority 1993, dated 2000)
